The values that follow come from ChEMBL document CHEMBL2074532, “P-glycoprotein increases the efflux of the androgen dihydrotestosterone and reduces androgen responsive gene activity in prostate tumor cells” (Prostate, 2004).

The series concerns the target ATP-dependent translocase ABCB1 (Homo sapiens, UniProt P08183). The series can be described thus: TP_TRANSPORTER: cell accumulation in P-gp transfected LNCaP cells. It is filed as functional, cell-based.

Sequence of ATP-dependent translocase ABCB1 (P08183 whole entry): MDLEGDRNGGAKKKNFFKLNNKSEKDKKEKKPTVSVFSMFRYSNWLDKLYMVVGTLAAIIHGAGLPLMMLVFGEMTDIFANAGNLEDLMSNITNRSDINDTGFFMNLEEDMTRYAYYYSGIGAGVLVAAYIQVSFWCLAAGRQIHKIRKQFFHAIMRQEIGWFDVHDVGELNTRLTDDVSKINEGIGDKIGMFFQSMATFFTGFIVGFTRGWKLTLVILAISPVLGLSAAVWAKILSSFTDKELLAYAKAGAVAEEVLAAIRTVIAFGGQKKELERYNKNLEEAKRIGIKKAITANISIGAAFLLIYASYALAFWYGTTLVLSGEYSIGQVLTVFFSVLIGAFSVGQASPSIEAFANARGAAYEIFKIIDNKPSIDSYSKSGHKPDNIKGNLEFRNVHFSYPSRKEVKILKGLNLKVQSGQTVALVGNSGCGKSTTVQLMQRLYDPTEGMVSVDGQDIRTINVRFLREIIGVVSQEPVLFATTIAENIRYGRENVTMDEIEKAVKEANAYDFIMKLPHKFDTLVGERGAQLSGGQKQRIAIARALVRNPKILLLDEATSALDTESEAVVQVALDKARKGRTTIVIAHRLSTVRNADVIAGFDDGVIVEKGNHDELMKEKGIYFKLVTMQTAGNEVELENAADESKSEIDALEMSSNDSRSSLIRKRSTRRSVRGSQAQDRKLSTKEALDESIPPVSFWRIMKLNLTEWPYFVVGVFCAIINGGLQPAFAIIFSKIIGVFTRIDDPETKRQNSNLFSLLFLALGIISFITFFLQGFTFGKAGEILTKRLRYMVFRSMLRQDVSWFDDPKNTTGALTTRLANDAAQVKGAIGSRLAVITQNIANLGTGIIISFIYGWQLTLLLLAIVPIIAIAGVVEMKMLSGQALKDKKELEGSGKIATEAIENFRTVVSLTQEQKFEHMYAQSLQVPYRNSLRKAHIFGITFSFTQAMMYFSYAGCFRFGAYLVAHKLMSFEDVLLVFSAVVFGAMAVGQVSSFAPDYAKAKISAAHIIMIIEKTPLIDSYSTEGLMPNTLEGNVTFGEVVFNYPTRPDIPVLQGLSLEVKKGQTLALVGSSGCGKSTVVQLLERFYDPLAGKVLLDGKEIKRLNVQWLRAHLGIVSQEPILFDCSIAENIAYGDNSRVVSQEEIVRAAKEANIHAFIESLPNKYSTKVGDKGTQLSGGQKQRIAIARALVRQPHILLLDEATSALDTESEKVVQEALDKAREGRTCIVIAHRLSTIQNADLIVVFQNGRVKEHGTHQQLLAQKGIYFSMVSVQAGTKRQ

Take `C[C@]12CCC(=O)C[C@@H]1CC[C@@H]1[C@@H]2CC[C@]2(C)[C@@H](O)CC[C@@H]12` [STANOLONE]: the Activity result was “substrate [+]”.
As to `CC[C@]1(O)C[C@@H]2CN(CCc3c([nH]c4ccccc34)[C@@](C(=O)OC)(c3cc4c(cc3OC)N(C)[C@H]3[C@@](O)(C(=O)OC)[C@H](OC(C)=O)[C@]5(CC)C=CCN6CC[C@]43[C@@H]65)C2)C1` [VINBLASTINE], the Activity entry is “substrate [+]”.
